target: ER (Homo sapiens (Human), UniProt P03372); assay: Western blot analysis (Compounds B1-B278); type: cell-based; conditions: ER degradation by traditional Western blot; DC50 classes
Procedure, shortened: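 Relative target-protein levels come from densitometry of immunoblots, normalized to GAPDH. Lysates from treated cells were prepared in RIPA buffer (pH 7.6) containing protease inhibitors, and equal protein amounts, checked by BCA, were separated on 10% gels and blotted onto PVDF.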

Chain of ER (P03372 whole entry): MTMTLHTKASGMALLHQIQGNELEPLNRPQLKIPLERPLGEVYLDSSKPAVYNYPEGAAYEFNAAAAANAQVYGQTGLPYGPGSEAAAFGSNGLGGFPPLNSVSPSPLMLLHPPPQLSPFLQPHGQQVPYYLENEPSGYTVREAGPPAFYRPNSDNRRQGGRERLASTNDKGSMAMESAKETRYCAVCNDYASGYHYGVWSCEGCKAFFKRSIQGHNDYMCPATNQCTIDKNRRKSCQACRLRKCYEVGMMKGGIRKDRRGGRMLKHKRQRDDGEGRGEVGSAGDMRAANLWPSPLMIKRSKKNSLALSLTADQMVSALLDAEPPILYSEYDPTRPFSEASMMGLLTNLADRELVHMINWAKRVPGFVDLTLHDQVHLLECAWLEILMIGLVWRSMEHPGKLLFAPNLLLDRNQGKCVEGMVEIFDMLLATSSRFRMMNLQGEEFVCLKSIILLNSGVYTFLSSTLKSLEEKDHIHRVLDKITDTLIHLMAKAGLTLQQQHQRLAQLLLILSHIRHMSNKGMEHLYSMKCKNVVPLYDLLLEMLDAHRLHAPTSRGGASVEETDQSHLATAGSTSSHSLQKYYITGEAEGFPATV

Compound | Traditional Western Degradation Potency
COc1nc(C2CCC(C(=O)N3CCC(N4Cc5cc6c(cc5C4)C(=O)N(C4CCC(=O)NC4=O)C6=O)CC3)CC2)ccc1[C@@H]1c2[nH]c3ccccc3c2C[C@@H](C)N1CC(F)F (stereo partly drawn) [Compound B113, 6-(1-(4-(5-((1R,3R)-2-(2,2-difluoroethyl)-3-methyl-2,3,4,9-tetrahydro-1H-pyrido[3,4-b]indol-1-yl)-6-methoxypyridin-2-yl)cyclohexane-1-carbonyl)piperidin-4-yl)-2-(2,6-dioxopiperidin-3-yl)-6,7-dihydropyrrolo[3,4-f]isoindole-1,3(2H,5H)-dione] | C (“C”: >100 nM)
COc1cc(C2CCC(C(=O)N3CCC(N4Cc5cc6c(cc5C4)C(=O)N(C4CCC(=O)NC4=O)C6=O)CC3)CC2)cnc1[C@@H]1c2[nH]c3ccccc3c2C[C@@H](C)N1CC(F)F (stereo partly drawn) [Compound B115, 6-(1-(4-(6-((1S,3R)-2-(2,2-difluoroethyl)-3-methyl-2,3,4,9-tetrahydro-1H-pyrido[3,4-b]indol-1-yl)-5-methoxypyridin-3-yl)cyclohexane-1-carbonyl)piperidin-4-yl)-2-(2,6-dioxopiperidin-3-yl)-6,7-dihydropyrrolo[3,4-f]isoindole-1,3(2H,5H)-dione] | C (“C”: >100 nM)
C[C@@H]1Cc2c([nH]c3ccccc23)[C@@H](c2cnc(N3CC4(CCC(CN5Cc6cc7c(cc6C5)C(=O)N(C5CCC(=O)NC5=O)C7=O)CC4)C3)nc2)N1CC(C)(C)F (stereo partly drawn) [Compound B184, 2-(2,6-dioxopiperidin-3-yl)-6-((2-(5-((1R,3R)-2-(2-fluoro-2-methylpropyl)-3-methyl-2,3,4,9-tetrahydro-1H-pyrido[3,4-b]indol-1-yl)pyrimidin-2-yl)-2-azaspiro[3.5]nonan-7-yl)methyl) 6,7-dihydropyrrolo[3,4-f]isoindole-1,3(2H,5H)-dione] | C (“C”: >100 nM)
C[C@@H]1Cc2c([nH]c3ccccc23)[C@@H](c2cnc(N3CC4(CCC(CN5Cc6cc7c(cc6C5)C(=O)N(C5CCC(=O)NC5=O)C7=O)CC4)C3)nc2)N1CC(F)F (stereo partly drawn) [Compound B185, 6-((2-(5-((1R,3R)-2-(2,2-difluoroethyl)-3-methyl-2,3,4,9-tetrahydro-1H-pyrido[3,4-b]indol-1-yl)pyrimidin-2-yl)-2-azaspiro[3.5]nonan-7-yl)methyl)-2-(2,6-dioxopiperidin-3-yl)-6,7-dihydropyrrolo[3,4-f]isoindole-1,3(2H,5H)-dione] | C (“C”: >100 nM)
C[C@@H]1Cc2c([nH]c3ccccc23)[C@@H](c2cnc(N3CCC4(CC3)CC(CN3Cc5cc6c(cc5C3)C(=O)N(C3CCC(=O)NC3=O)C6=O)C4)nc2)N1CC(C)(C)F (stereo partly drawn) [Compound B186, 2-(2,6-dioxopiperidin-3-yl)-6-((7-(5-((1R,3R)-2-(2-fluoro-2-methylpropyl)-3-methyl-2,3,4,9-tetrahydro-1H-pyrido[3,4-b]indol-1-yl)pyrimidin-2-yl)-7-azaspiro[3.5]nonan-2-yl)methyl)-6,7-dihydropyrrolo[3,4-f]isoindole-1,3(2H,5H)-dione] | C (“C”: >100 nM)
C[C@@H]1Cc2c([nH]c3ccccc23)[C@@H](c2cnc(N3CCC4(CC3)CC(CN3Cc5cc6c(cc5C3)C(=O)N(C3CCC(=O)NC3=O)C6=O)C4)nc2)N1CC(F)F (stereo partly drawn) [Compound B187, 6-((7-(5-((1R,3R)-2-(2,2-difluoroethyl)-3-methyl-2,3,4,9-tetrahydro-1H-pyrido[3,4-b]indol-1-yl)pyrimidin-2-yl)-7-azaspiro[3.5]nonan-2-yl)methyl)-2-(2,6-dioxopiperidin-3-yl)-6,7-dihydropyrrolo[3,4-f]isoindole-1,3(2H,5H)-dione] | B (“B”: 10-100 nM)
C[C@@H]1Cc2c([nH]c3ccccc23)[C@@H](c2c(F)cc(N3CCC(CN4CCC(C(=O)N5Cc6cc7c(cc6C5)C(=O)N(C5CCC(=O)NC5=O)C7=O)CC4)C3)cc2F)N1CC(F)F (stereo partly drawn) [Compound B188, 6-(1-((1-(4-((1R,3R)-2-(2,2-difluoroethyl)-3-methyl-2,3,4,9-tetrahydro-1H-pyrido[3,4-b]indol-1-yl)-3,5-difluorophenyl)pyrrolidin-3-yl)methyl)piperidine-4-carbonyl)-2-(2,6-dioxopiperidin-3-yl)-6,7-dihydropyrrolo[3,4-f]isoindole-1,3(2H,5H)-dione] | A (“A”: <10 nM)
C[C@@H]1Cc2c([nH]c3ccccc23)[C@@H](c2c(F)cc(N3CCCC(CN4CCC(C(=O)N5Cc6cc7c(cc6C5)C(=O)N(C5CCC(=O)NC5=O)C7=O)CC4)C3)cc2F)N1CC(F)F (stereo partly drawn) [Compound B189, 6-(1-((1-(4-((1R,3R)-2-(2,2-difluoroethyl)-3-methyl-2,3,4,9-tetrahydro-1H-pyrido[3,4-b]indol-1-yl)-3,5-difluorophenyl)piperidin-3-yl)methyl)piperidine-4-carbonyl)-2-(2,6-dioxopiperidin-3-yl)-6,7-dihydropyrrolo[3,4-f]isoindole-1,3(2H,5H)-dione] | B (“B”: 10-100 nM)
C[C@@H]1Cc2c([nH]c3ccccc23)[C@@H](c2c(F)cc(N3CCCC(CN4CCC(N5Cc6cc7c(cc6C5)C(=O)N(C5CCC(=O)NC5=O)C7=O)CC4)C3)cc2F)N1CC(F)F (stereo partly drawn) [Compound B190, 6-(1-((1-(4-((1R,3R)-2-(2,2-difluoroethyl)-3-methyl-2,3,4,9-tetrahydro-1H-pyrido[3,4-b]indol-1-yl)-3,5-difluorophenyl)piperidin-3-yl)methyl)piperidin-4-yl)-2-(2,6-dioxopiperidin-3-yl)-6,7-dihydropyrrolo[3,4-f]isoindole-1,3(2H,5H)-dione] | B (“B”: 10-100 nM)
C[C@@H]1Cc2c([nH]c3ccccc23)[C@@H](c2c(F)cc(N3CC4(CCN4CC(=O)N4Cc5cc6c(cc5C4)C(=O)N(C4CCC(=O)NC4=O)C6=O)C3)cc2F)N1CC(F)F (stereo partly drawn) [Compound B191, 6-(2-(6-(4-((1R,3R)-2-(2,2-difluoroethyl)-3-methyl-2,3,4,9-tetrahydro-1H-pyrido[3,4-b]indol-1-yl)-3,5-difluorophenyl)-1,6-diazaspiro[3.3]heptan-1-yl)acetyl)-2-(2,6-dioxopiperidin-3-yl)-6,7-dihydropyrrolo[3,4-f]isoindole-1,3(2H,5H)-dione] | C (“C”: >100 nM)
C[C@@H]1Cc2c([nH]c3ccccc23)[C@@H](c2c(F)cc(N3CC4(CCN4CC(=O)N4Cc5cc6c(cc5C4)C(=O)N(C4CCC(=O)NC4=O)C6)C3)cc2F)N1CC(F)F (stereo partly drawn) [Compound B192, 3-(6-(2-(6-(4-((1R,3R)-2-(2,2-difluoroethyl)-3-methyl-2,3,4,9-tetrahydro-1H-pyrido[3,4-b]indol-1-yl)-3,5-difluorophenyl)-1,6-diazaspiro[3.3]heptan-1-yl)acetyl)-1-oxo-3,5,6,7-tetrahydropyrrolo[3,4-f]isoindol-2(1H)-yl)piperidine-2,6-dione] | C (“C”: >100 nM)
C[C@@H]1Cc2c([nH]c3ccccc23)[C@@H](c2c(F)cc(N3CCC4(CCN(CC(=O)N5Cc6cc7c(cc6C5)C(=O)N(C5CCC(=O)NC5=O)C7=O)C4)CC3)cc2F)N1CC(F)F (stereo partly drawn) [Compound B193, 6-(2-(8-(4-((1R,3R)-2-(2,2-difluoroethyl)-3-methyl-2,3,4,9-tetrahydro-1H-pyrido[3,4-b]indol-1-yl)-3,5-difluorophenyl)-2,8-diazaspiro[4.5]decan-2-yl)acetyl)-2-(2,6-dioxopiperidin-3-yl)-6,7-dihydropyrrolo[3,4-f]isoindole-1,3(2H,5H)-dione] | A (“A”: <10 nM)
C[C@@H]1Cc2c([nH]c3ccccc23)[C@@H](c2c(F)cc(N3CCC4(CCN(CC(=O)N5Cc6cc7c(cc6C5)C(=O)N(C5CCC(=O)NC5=O)C7)C4)CC3)cc2F)N1CC(F)F (stereo partly drawn) [Compound B194, 3-(6-(2-(8-(4-((1R,3R)-2-(2,2-difluoroethyl)-3-methyl-2,3,4,9-tetrahydro-1H-pyrido[3,4-b]indol-1-yl)-3,5-difluorophenyl)-2,8-diazaspiro[4.5]decan-2-yl)acetyl)-1-oxo-3,5,6,7-tetrahydropyrrolo[3,4-f]isoindol-2(1H)-yl)piperidine-2,6-dione] | A (“A”: <10 nM)
C[C@@H]1Cc2c([nH]c3ccccc23)[C@@H](c2c(F)cc(N3CCC4(CCN(C(=O)CN5Cc6cc7c(cc6C5)C(=O)N(C5CCC(=O)NC5=O)C7)C4)CC3)cc2F)N1CC(F)F (stereo partly drawn) [Compound B195, 3-(6-(2-(8-(4-((1R,3R)-2-(2,2-difluoroethyl)-3-methyl-2,3,4,9-tetrahydro-1H-pyrido[3,4-b]indol-1-yl)-3,5-difluorophenyl)-2,8-diazaspiro[4.5]decan-2-yl)-2-oxoethyl)-1-oxo-3,5,6,7-tetrahydropyrrolo[3,4-f]isoindol-2(1H)-yl)piperidine-2,6-dione] | A (“A”: <10 nM)
C[C@@H]1Cc2c([nH]c3ccccc23)[C@@H](c2c(F)cc(N3CC[C@@H](CN4CCC(C(=O)N5Cc6cc7c(cc6C5)C(=O)N(C5CCC(=O)NC5=O)C7)CC4)C3)cc2F)N1CC(F)F (stereo partly drawn) [Compound B196, 3-(6-(1-(((S)-1-(4-((1R,3R)-2-(2,2-difluoroethyl)-3-methyl-2,3,4,9-tetrahydro-1H-pyrido[3,4-b]indol-1-yl)-3,5-difluorophenyl)pyrrolidin-3-yl)methyl)piperidine-4-carbonyl)-1-oxo-3,5,6,7-tetrahydropyrrolo[3,4-f]isoindol-2(1H)-yl)piperidine-2,6-dione] | A (“A”: <10 nM)
C[C@@H]1Cc2c([nH]c3ccccc23)[C@@H](c2c(F)cc(N3CC[C@@H](CN4CCC(C(=O)N5Cc6cc7c(cc6C5)C(=O)N(C5CCC(=O)NC5=O)C7=O)CC4)C3)cc2F)N1CC(F)F (stereo partly drawn) [Compound B197, 6-(1-(((S)-1-(4-((1R,3R)-2-(2,2-difluoroethyl)-3-methyl-2,3,4,9-tetrahydro-1H-pyrido[3,4-b]indol-1-yl)-3,5-difluorophenyl)pyrrolidin-3-yl)methyl)piperidine-4-carbonyl)-2-(2,6-dioxopiperidin-3-yl)-6,7-dihydropyrrolo[3,4-f]isoindole-1,3(2H,5H)-dione] | A (“A”: <10 nM)
